Laboratory results from US20260078103A1, “ISOQUINOLONES AS PI3K INHIBITORS” (OnKure, Inc., priority 2022, published 2026).
pEC50, pIC50: −log10 of the molar value. Read-outs that look alike come from different tables or passages of the source. One block for each compound: values may come before it.

Legend:
Type in all cases: cell-based
[1] = tested on: phosphorylation of AKT (pAKT) in SKBR3 cells express WT PI3Ka; experiment: In vitro cell pAKT (Ser473) HTRF, SKBR3 cells; details: cellular pAKT
In short: (§1)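 pAKT (Ser473) was quantified by HTRF in lysates from cells exposed 6 h at 37 °C to 10-point compound series, with T47D in insulin-supplemented RPMI/10% FBS and SKBR3 in McCoy's 5a/10% FBS. Controls: 0.1% DMSO (high) and 10 uM alpelisib (low). IC50 from sigmoidal curve fitting.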

[2] = tested on: SKBR3 cells express WT PI3Ka; experiment: In vitro cell proliferation, SKBR3 cells (CellTiter-Glo); details: inhibition of proliferation
In short: (§2)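 T47D (PI3Kα H1047R; RPMI, 10% FBS, insulin 0.2 units/mL) or SKBR3 (WT PI3Kα; McCoys 5a, 10% FBS) cells seeded at 1,500 cells/well on 10-point compound dilutions, grown 72 h at 37 °C. CellTiter-Glo luminescence; inhibition normalised to 0.1% DMSO and 10 uM alpelisib, EC50 from four-parameter fit.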

[3] = tested on: T47D cells expressing mutant PI3Ka (H1047R); experiment: In vitro cell proliferation, T47D cells (CellTiter-Glo); details: inhibition of proliferation, read-out: Avg T-47D EC50
In short: as §2

[4] = tested on: phosphorylation of AKT (pAKT) in T47D cells expressing mutant PI3Ka (H1047R); experiment: In vitro cell pAKT (Ser473) HTRF, T47D cells; details: cellular pAKT, T47D cells, mutant PI3Ka (H1047R), 6 hours, read-out: Avg T-47D IC50
In short: as §1

SMILES: Cc1cc(C(C)Nc2ccccc2C(=O)O)c2cc(N3Cc4ccc(F)c(F)c4C3)n(C)c(=O)c2c1 (single isomer, unassigned) [Example 178]
- pIC50 ([1]; 6 hours): < 4.82
- pEC50 ([2]; 72 hours): < 4.82
- pEC50 ([3]; 72 hours): 5.70 to 6.30
- pIC50 [4]: 6.30 to 9.00

SMILES: COC1(C)CN(c2cc3c(C(C)Nc4ccccc4C(=O)O)cc(C)cc3c(=O)n2C)C1 (single isomer, unassigned) [Example 183]
- pIC50 ([1]; Homo sapiens, SK-BR-3, 6 h): < 4.82
- pEC50 ([2]; Homo sapiens, SK-BR-3, 72 h): < 4.82
- pEC50 ([3]; 72 hours): < 4.82
- pIC50 [4]: < 4.82

SMILES: COC[C@@H]1CC1c1cc2c([C@@H](C)Nc3ccccc3C(=O)O)cc(C)cc2c(=O)n1C (single isomer, unassigned) [Example 308]
- pIC50 ([1]; 6 hours): 4.82 to 5.70
- pEC50 ([2]; 72 hours): 4.82 to 5.70
- pEC50 ([3]; Homo sapiens, T47D, 72 h): 6.30 to 9.00
- pIC50 ([4]; Homo sapiens, T47D, 6 h): 6.30 to 9.00

SMILES: Cc1cc([C@@H](C)Nc2ccccc2C(=O)O)c2cc(C3C[C@H]3C3CC3)n(C)c(=O)c2c1 (single isomer, unassigned) [Example 309]
- pIC50 ([1]; 6 hours): 4.82 to 5.70
- pEC50 ([2]; Homo sapiens, SK-BR-3, 72 h): < 4.82
- pEC50 ([3]; Homo sapiens, T47D, 72 h): 6.30 to 9.00
- pIC50 ([4]; Homo sapiens, T47D, 6 h): 6.30 to 9.00

SMILES: Cc1cc([C@@H](C)Nc2ccccc2C(=O)O)c2cc(C3C[C@H]3C)n(C)c(=O)c2c1 (single isomer, unassigned) [Example 310]
- pIC50 ([1]; Homo sapiens, SK-BR-3, 6 h): < 4.82
- pEC50 ([2]; 72 hours): 4.82 to 5.70
- pEC50 ([3]; Homo sapiens, T47D, 72 h): 6.30 to 9.00
- pIC50 ([4]; Homo sapiens, T47D, 6 h): 6.30 to 9.00

SMILES: Cc1cc([C@@H](C)Nc2ccccc2C(=O)O)c2cc(C3C[C@H]3C(C)C)n(C)c(=O)c2c1 (single isomer, unassigned) [Example 311]
- pIC50 ([1]; Homo sapiens, SK-BR-3, 6 h): < 4.82
- pEC50 ([2]; 72 hours): < 4.82
- pEC50 ([3]; Homo sapiens, T47D, 72 h): 6.30 to 9.00
- pIC50 ([4]; Homo sapiens, T47D, 6 h): 6.30 to 9.00

SMILES: Cc1cc([C@@H](C)Nc2ccccc2C(=O)O)c2cc(C3C[C@H]3C(C)C)n(C)c(=O)c2c1 (single isomer, unassigned) [Example 312]
- pIC50 ([1]; 6 hours): < 4.82
- pEC50 ([2]; 72 hours): 4.82 to 5.70
- pEC50 ([3]; 72 hours): 6.30 to 9.00
- pIC50 [4]: 6.30 to 9.00

SMILES: Cc1cc([C@@H](C)Nc2ccccc2C(=O)O)c2cc(C3C[C@H]3C)n(C)c(=O)c2c1 (single isomer, unassigned) [Example 313]
- pIC50 ([1]; 6 hours): < 4.82
- pEC50 ([2]; 72 hours): < 4.82
- pEC50 ([3]; 72 hours): 6.30 to 9.00
- pIC50 [4]: 6.30 to 9.00

SMILES: COC[C@@H]1CC1c1cc2c([C@@H](C)Nc3ccccc3C(=O)O)cc(C)cc2c(=O)n1C (single isomer, unassigned) [Example 314]
- pIC50 ([1]; 6 hours): < 4.82
- pEC50 ([2]; 72 hours): < 4.82
- pEC50 ([3]; 72 hours): 6.30 to 9.00
- pIC50 [4]: 6.30 to 9.00

SMILES: Cc1cc([C@@H](C)Nc2ccccc2C(=O)O)c2cc(C3C[C@H]3C3CC3)n(C)c(=O)c2c1 (single isomer, unassigned) [Example 315]
- pIC50 ([1]; 6 hours): < 4.82
- pEC50 ([2]; 72 hours): < 4.82
- pEC50 ([3]; 72 hours): 6.30 to 9.00
- pIC50 [4]: 6.30 to 9.00

SMILES: Cc1cc([C@@H](C)Nc2cccc(F)c2C(=O)O)c2cc(C3C[C@H]3C)n(C)c(=O)c2c1 (single isomer, unassigned) [Example 355]
- pIC50 ([1]; Homo sapiens, SK-BR-3, 6 h): < 4.82
- pEC50 ([2]; Homo sapiens, SK-BR-3, 72 h): < 4.82
- pEC50 ([3]; Homo sapiens, T47D, 72 h): 6.30 to 9.00
- pIC50 ([4]; Homo sapiens, T47D, 6 h): 6.30 to 9.00

SMILES: Cc1cc([C@@H](C)Nc2cccc(F)c2C(=O)O)c2cc(C3C[C@H]3C)n(C)c(=O)c2c1 (single isomer, unassigned) [Example 356]
- pIC50 ([1]; 6 hours): < 4.82
- pEC50 ([2]; 72 hours): < 4.82
- pEC50 ([3]; 72 hours): 6.30 to 9.00
- pIC50 [4]: 6.30 to 9.00

SMILES: Cc1cc(C(C)Nc2ccccc2C(=O)O)c2c(F)c(C3=CCN(CC(F)(F)F)CC3)n(C)c(=O)c2c1 (single isomer, unassigned) [Example 359]
- pIC50 ([1]; 6 hours): < 4.82
- pEC50 ([2]; 72 hours): < 4.82
- pEC50 ([3]; 72 hours): 6.30 to 9.00
- pIC50 [4]: 6.30 to 9.00

SMILES: Cc1cc(C(C)Nc2ccccc2C(=O)O)c2c(F)c(C3=CCN(CC(F)(F)F)CC3)n(C)c(=O)c2c1 (single isomer, unassigned) [Example 360]
- pIC50 ([1]; 6 hours): < 4.82
- pEC50 ([2]; 72 hours): < 4.82
- pEC50 ([3]; 72 hours): 4.82 to 5.70
- pIC50 [4]: < 4.82

SMILES: Cc1cc([C@@H](C)Nc2ccccc2C(=O)O)c2cc([C@H]3C[C@@H]3C(C)(C)O)n(C)c(=O)c2c1 (single isomer, unassigned) [Example 373]
- pIC50 ([1]; Homo sapiens, SK-BR-3, 6 h): < 4.82
- pEC50 ([2]; Homo sapiens, SK-BR-3, 72 h): < 4.82
- pEC50 ([3]; Homo sapiens, T47D, 72 h): 6.30 to 9.00
- pIC50 ([4]; Homo sapiens, T47D, 6 h): 6.30 to 9.00

SMILES: Cc1cc([C@@H](C)Nc2ccccc2C(=O)O)c2cc([C@H]3C[C@@H]3C(C)(C)O)n(C)c(=O)c2c1 (single isomer, unassigned) [Example 374]
- pIC50 ([1]; 6 hours): < 4.82
- pEC50 ([2]; 72 hours): < 4.82
- pEC50 ([3]; 72 hours): 6.30 to 9.00
- pIC50 [4]: 6.30 to 9.00

SMILES: Cc1cc([C@@H](C)Nc2ccccc2C(=O)O)c2cc(C3CC3(F)F)n(C)c(=O)c2c1 (single isomer, unassigned) [Example 384]
- pIC50 ([1]; Homo sapiens, SK-BR-3, 6 h): < 4.82
- pEC50 ([2]; Homo sapiens, SK-BR-3, 72 h): < 4.82
- pEC50 ([3]; Homo sapiens, T47D, 72 h): 6.30 to 9.00
- pIC50 ([4]; Homo sapiens, T47D, 6 h): 6.30 to 9.00

Other lines, results leading:

- pIC50 ([1]; Homo sapiens, SK-BR-3, 6 h): < 4.82
- pEC50 ([2]; Homo sapiens, SK-BR-3, 72 h): < 4.82
- pEC50 ([3]; 72 hours): < 4.82
- pIC50 [4]: < 4.82
SMILES: Cc1cc(C(C)Nc2ccccc2C(=O)O)c2cc(N3CC(C)(O)C3)n(C)c(=O)c2c1 (single isomer, unassigned) [Example 181]

- pIC50 ([1]; 6 hours): < 4.82
- pEC50 ([2]; 72 hours): < 4.82
- pEC50 ([3]; 72 hours): 4.82 to 5.70
- pIC50 [4]: 4.82 to 5.70
SMILES: Cc1cc(C(C)Nc2ccccc2C(=O)O)c2cc(N3CC(C)(O)C3)n(C)c(=O)c2c1 (single isomer, unassigned) [Example 182]

- pIC50 ([1]; Homo sapiens, SK-BR-3, 6 h): < 4.82
- pEC50 ([2]; Homo sapiens, SK-BR-3, 72 h): < 4.82
- pEC50 ([3]; 72 hours): 5.70 to 6.30
- pIC50 ([4]; Homo sapiens, T47D, 6 h): 6.30 to 9.00
SMILES: Cc1cc([C@@H](C)Nc2ccccc2C(=O)O)c2cc(N3CC4CC3CN4CC(F)(F)F)n(C)c(=O)c2c1 (single isomer, unassigned) [Example 211]

- pIC50 ([1]; 6 hours): < 4.82
- pEC50 ([2]; 72 hours): < 4.82
- pEC50 ([3]; 72 hours): 5.70 to 6.30
- pIC50 [4]: 6.30 to 9.00
SMILES: COC1(C)CN(c2cc3c(C(C)Nc4ccccc4C(=O)O)cc(C)cc3c(=O)n2C)C1 (single isomer, unassigned) [Example 213]

- pIC50 ([1]; 6 hours): < 4.82
- pEC50 ([2]; 72 hours): < 4.82
- pEC50 ([3]; 72 hours): 6.30 to 9.00
- pIC50 [4]: 6.30 to 9.00
SMILES: Cc1cc([C@@H](C)Nc2ccccc2C(=O)O)c2cc(N3CC4CC3CN4CC(F)(F)F)n(C)c(=O)c2c1 (single isomer, unassigned) [Example 224]

- pIC50 ([1]; Homo sapiens, SK-BR-3, 6 h): < 4.82
- pEC50 ([2]; 72 hours): < 4.82
- pEC50 ([3]; Homo sapiens, T47D, 72 h): 6.30 to 9.00
- pIC50 ([4]; Homo sapiens, T47D, 6 h): 6.30 to 9.00
SMILES: CCN1CCN(c2cc3c([C@@H](C)Nc4ccccc4C(=O)O)cc(C)cc3c(=O)n2C)CC1C(F)(F)F (single isomer, unassigned) [Example 266]

- pIC50 ([1]; 6 hours): < 4.82
- pEC50 ([2]; 72 hours): 4.82 to 5.70
- pEC50 ([3]; 72 hours): 6.30 to 9.00
- pIC50 [4]: 6.30 to 9.00
SMILES: CCN1CCN(c2cc3c([C@@H](C)Nc4ccccc4C(=O)O)cc(C)cc3c(=O)n2C)CC1C(F)(F)F (single isomer, unassigned) [Example 267]

- pIC50 ([1]; Homo sapiens, SK-BR-3, 6 h): < 4.82
- pEC50 ([2]; Homo sapiens, SK-BR-3, 72 h): < 4.82
- pEC50 ([3]; Homo sapiens, T47D, 72 h): 6.30 to 9.00
- pIC50 ([4]; Homo sapiens, T47D, 6 h): 6.30 to 9.00
SMILES: Cc1cc([C@@H](C)Nc2ccccc2C(=O)O)c2cc(N3CCN(C(C)C(F)(F)F)CC3)n(C)c(=O)c2c1 (single isomer, unassigned) [Example 278]

- pIC50 ([1]; 6 hours): < 4.82
- pEC50 ([2]; 72 hours): < 4.82
- pEC50 ([3]; 72 hours): 6.30 to 9.00
- pIC50 [4]: 6.30 to 9.00
SMILES: Cc1cc([C@@H](C)Nc2ccccc2C(=O)O)c2cc(N3CCN(C(C)C(F)(F)F)CC3)n(C)c(=O)c2c1 (single isomer, unassigned) [Example 279]

- pIC50 ([1]; Homo sapiens, SK-BR-3, 6 h): < 4.82
- pEC50 ([2]; Homo sapiens, SK-BR-3, 72 h): < 4.82
- pEC50 ([3]; Homo sapiens, T47D, 72 h): 6.30 to 9.00
- pIC50 ([4]; Homo sapiens, T47D, 6 h): 6.30 to 9.00
SMILES: Cc1cc([C@@H](C)Nc2ccccc2C(=O)O)c2cc(N3CCN(C)C(C(F)(F)F)C3)n(C)c(=O)c2c1 (single isomer, unassigned) [Example 301]

- pIC50 ([1]; 6 hours): < 4.82
- pEC50 ([2]; 72 hours): < 4.82
- pEC50 ([3]; 72 hours): 6.30 to 9.00
- pIC50 [4]: 6.30 to 9.00
SMILES: Cc1cc([C@@H](C)Nc2ccccc2C(=O)O)c2cc(N3CCN(C)C(C(F)(F)F)C3)n(C)c(=O)c2c1 (single isomer, unassigned) [Example 302]
